{"source": "paper PMC4174574", "about": "(Molecular cancer therapeutics, 2013)", "key": {"[1]": {"target": "T1, Mcl-1 (Homo sapiens, UniProt Q07820)", "T1 sequence (Q07820 whole entry)": "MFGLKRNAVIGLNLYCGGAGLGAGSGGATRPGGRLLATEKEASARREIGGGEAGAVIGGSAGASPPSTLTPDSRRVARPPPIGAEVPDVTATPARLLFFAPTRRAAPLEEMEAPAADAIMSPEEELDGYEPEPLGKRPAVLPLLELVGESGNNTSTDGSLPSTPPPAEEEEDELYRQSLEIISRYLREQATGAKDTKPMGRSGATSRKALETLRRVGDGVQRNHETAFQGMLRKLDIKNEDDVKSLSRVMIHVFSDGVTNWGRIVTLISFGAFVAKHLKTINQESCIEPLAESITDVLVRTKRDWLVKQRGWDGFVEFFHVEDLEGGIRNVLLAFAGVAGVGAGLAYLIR", "details": "cited from earlier work"}, "[2]": {"test_system": "SCID mice", "details": "mouse, in vivo"}, "[3]": {"target": "T2, Bcl-w (Homo sapiens, UniProt Q92843)", "T2 sequence (Q92843 1-193)": "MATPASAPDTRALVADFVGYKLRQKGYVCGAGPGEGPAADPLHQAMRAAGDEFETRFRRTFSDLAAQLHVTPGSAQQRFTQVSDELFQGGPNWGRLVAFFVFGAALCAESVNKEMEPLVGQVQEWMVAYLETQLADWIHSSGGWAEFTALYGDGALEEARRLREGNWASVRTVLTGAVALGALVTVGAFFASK", "assay": "FP-based competitive binding assay using fluorescent labeled Bid BH3 peptide", "details": "for Ki: read-out: Ki ± SD, Bcl-w, competitive FP assay, Bid BH3 peptide"}, "[4]": {"target": "cellular Mcl-1 (Homo sapiens, UniProt Q07820)", "sequence (Q07820 whole entry)": "as the sequence (Q07820 whole entry) above", "assay": "Biotin-labeled Noxa BH3 peptide streptavidin pull-down from 2LMP cell lysate", "assay_type": "binding"}, "[5]": {"test_system": "BxPC-3", "details": "read-out: IC50 cell growth inhibition, BxPC-3; 4 days treatment"}, "[6]": {"target": "T3, Bcl-2 (Homo sapiens, UniProt P10415)", "T3 sequence (P10415 whole entry)": "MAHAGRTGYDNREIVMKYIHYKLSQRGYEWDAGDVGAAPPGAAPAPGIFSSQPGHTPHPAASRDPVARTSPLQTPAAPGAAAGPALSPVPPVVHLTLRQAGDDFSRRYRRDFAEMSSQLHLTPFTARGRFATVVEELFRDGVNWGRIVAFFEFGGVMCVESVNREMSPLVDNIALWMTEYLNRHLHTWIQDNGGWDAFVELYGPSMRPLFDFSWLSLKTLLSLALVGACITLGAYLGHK", "details": "solution competitive SPR, immobilized Bid peptide"}, "[7]": {"test_system": "wild type (WT) murine embryonic fibroblasts (MEF)", "details": "10 μM, 24 h"}, "[8]": {"test_system": "BxPC-3 cells", "assay": "Induction of apoptosis", "details": "BxPC-3 transfected with control siRNA, 3.5 μM, 72 h"}, "[9]": {"test_system": "MiaPaCa-2", "details": "read-out: IC50 cell growth inhibition, MiaPaCa-2; 4 days treatment"}, "[10]": {"target": "T4, A1/Bfl-1 (Homo sapiens, UniProt Q16548)", "T4 sequence (Q16548 1-175)": "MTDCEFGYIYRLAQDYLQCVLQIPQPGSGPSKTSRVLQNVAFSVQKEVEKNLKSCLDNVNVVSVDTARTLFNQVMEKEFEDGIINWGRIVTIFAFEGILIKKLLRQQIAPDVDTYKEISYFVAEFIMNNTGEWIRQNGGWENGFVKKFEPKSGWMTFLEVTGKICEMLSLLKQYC", "assay": "FP-based competitive binding assay using fluorescent labeled Bid BH3 peptide", "details": "for Ki: read-out: Ki ± SD, A1/Bfl-1, competitive FP assay, Bid BH3 peptide"}, "[11]": {"test_system": "BxPC-3 cells", "details": "BxPC-3, 24 h, 3 and 10 μM, densitometry"}, "[12]": {"test_system": "Panc-1 cells", "details": "Panc-1, 24 h treatment"}, "[13]": {"test_system": "Capan-2", "details": "read-out: IC50 cell growth inhibition, Capan-2; 4 days treatment"}, "[14]": {"target": "T1, Mcl-1", "assay_type": "binding"}, "[15]": {"test_system": "BxPC-3 cells", "details": "BxPC-3, 24 h, anti-Bax 6A7"}, "[16]": {"test_system": "Panc-1", "details": "read-out: IC50 cell growth inhibition, Panc-1; 4 days treatment"}, "[17]": {"target": "Mcl-1/Bax and Mcl-1/Bak in BxPC-3 cells (Homo sapiens, UniProt Q07820)", "sequence (Q07820 whole entry)": "as the sequence (Q07820 whole entry) above", "details": "BxPC-3, 4 μM, 24 h"}, "[18]": {"test_system": "AsPC-1", "details": "read-out: IC50 cell growth inhibition, AsPC-1; 4 days treatment"}, "[19]": {"test_system": "Panc-1 cells", "details": "Panc-1, 24 h, anti-Bax 6A7"}, "[20]": {"target": "T3, Bcl-2", "assay": "FP-based competitive binding assay using fluorescent labeled Bid BH3 peptide"}, "[21]": {"test_system": "BxPC-3 cells", "assay": "Cell growth inhibition", "details": "BxPC-3 transfected with control siRNA, 3.5 μM, 72 h"}, "[22]": {"assay": "Metabolic stability in pooled mice liver microsomes", "assay_type": "in vitro ADME"}, "[23]": {"target": "T5, Bcl-xL (Homo sapiens, UniProt Q07817)", "T5 sequence (Q07817 whole entry)": "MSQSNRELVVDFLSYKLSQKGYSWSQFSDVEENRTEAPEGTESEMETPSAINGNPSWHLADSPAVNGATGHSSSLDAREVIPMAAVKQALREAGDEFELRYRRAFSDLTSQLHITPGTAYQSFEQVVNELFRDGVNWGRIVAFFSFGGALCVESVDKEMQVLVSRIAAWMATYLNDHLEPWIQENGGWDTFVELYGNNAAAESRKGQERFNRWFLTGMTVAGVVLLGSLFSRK", "assay": "FP-based competitive binding assay using fluorescent labeled Bid BH3 peptide"}, "[24]": {"target": "T1, Mcl-1", "assay": "FP-based competitive binding assay using fluorescent labeled Bid BH3 peptide"}, "[25]": {"test_system": "Bax/Bak-deficient (DKO) MEFs", "details": "10 μM, 24 h"}, "[26]": {"target": "T5, Bcl-xL", "details": "solution competitive SPR, immobilized Bid peptide"}, "[27]": {"test_system": "AsPC-1 cells", "details": "AsPC-1, highest tested concentration 20 μM"}, "[28]": {"test_system": "Panc-1 cells", "assay": "Induction of apoptosis, Annexin V/PI double staining flow cytometry", "assay_type": "cell-based, human"}, "[29]": {"test_system": "BxPC-3 xenograft", "assay": "BxPC-3 xenograft efficacy in SCID mice", "assay_type": "in vivo", "details": "60 mg/kg i.v.; for Tumor growth inhibition in comparison with controls: 5 days a week for two weeks"}}, "data": [{"smiles": "CN(C)CC[C@H](CSc1ccccc1)Nc1ccc(S(=O)(=O)NC(=O)c2ccc(N3CCN(Cc4ccccc4-c4ccc(Cl)cc4)CC3)cc2)cc1[N+](=O)[O-]", "note": "[ABT-737]", "values": [{"measurement": "Binding to Mcl-1", "setting": "[1]", "value": "fails to bind"}]}, {"smiles": "O=C(O)CSc1cc(NS(=O)(=O)c2ccc(Br)cc2)c2ccccc2c1O", "note": "[UMI-77]", "values": [{"measurement": "Histopathology (H&E) of kidney, liver and pancreas", "setting": "[2]", "value": "did not cause damage"}, {"measurement": "Fold decreased binding to Bcl-w vs Mcl-1", "setting": "[3]; FP Ki ratio", "value": 17, "unit": "fold"}, {"measurement": "Ki", "setting": "[3]", "value": "8.19 ± 1.91", "unit": "µM"}, {"measurement": "Concentration from which BL-Noxa / cellular Mcl-1 interaction is blocked", "setting": "[4]", "value": "≥ 10", "unit": "µM"}, {"measurement": "Disruption of BL-Noxa / cellular Mcl-1 interaction", "setting": "[4]", "value": "effectively disrupt the interactions between BL-Noxa and cellular Mcl-1 in a dose dependent manner"}, {"measurement": "IC50", "setting": "[5]", "value": 3.4, "unit": "µM"}, {"measurement": "Fold decreased binding to Bcl-2 vs Mcl-1 (SPR)", "setting": "[6]", "value": "more than 30 fold"}, {"measurement": "Apoptosis in MEF WT cells", "setting": "[7]", "value": "more than 60%"}, {"measurement": "Induction of apoptosis", "setting": "[8]", "value": 7, "unit": "fold"}, {"measurement": "IC50", "setting": "[9]", "value": 12.5, "unit": "µM"}, {"measurement": "Fold lower affinity to A1/Bfl-1 than to Mcl-1", "setting": "[10]; FP Ki ratio", "value": 11, "unit": "fold"}, {"measurement": "Ki", "setting": "[10]", "value": "5.33 ± 1", "unit": "µM"}, {"measurement": "Cleaved caspase-3 versus DMSO control", "setting": "[11]", "value": "statistically significant cleaved caspase-3 versus DMSO control"}, {"measurement": "Concentration from which cytochrome c and Smac are released from mitochondria", "setting": "[12]", "value": "≥ 10", "unit": "µM"}, {"measurement": "IC50", "setting": "[13]", "value": 5.5, "unit": "µM"}, {"measurement": "Fold improved binding affinity to Mcl-1 in comparison with UMI-59 (SPR)", "setting": "[14]; SPR IC50 ratio", "value": 4, "unit": "fold"}, {"measurement": "IC50", "setting": "[14]; read-out: IC50, Mcl-1 (SPR), solution competitive SPR, immobilized Bid peptide", "value": 310, "unit": "nM"}, {"measurement": "Concentration from which activated Bax is substantially increased", "setting": "[15]", "value": "≥ 5", "unit": "µM"}, {"measurement": "IC50", "setting": "[16]", "value": 4.4, "unit": "µM"}, {"measurement": "Endogenous protein-protein interactions of Bax and Bak with Mcl-1", "setting": "[17]", "value": "inhibition of the endogenous protein-protein interactions of Bax and Bak with Mcl-1"}, {"measurement": "IC50", "setting": "[18]", "value": 16.1, "unit": "µM"}, {"measurement": "Concentration from which activated Bax is substantially increased", "setting": "[19]", "value": "≥ 5", "unit": "µM"}, {"measurement": "Fold reduced binding to Bcl-2 vs Mcl-1", "setting": "[20]; FP Ki ratio", "value": "more than 50 fold"}, {"measurement": "Ki", "setting": "[20]; read-out: Ki ± SD, Bcl-2, competitive FP assay, Bid BH3 peptide", "value": "23.8 ± 1.81", "unit": "µM"}, {"measurement": "Cell growth inhibition", "setting": "[21]", "value": 50, "unit": "%"}, {"measurement": "Microsomal half-life (T1/2)", "setting": "[22]", "value": 45, "unit": "min"}, {"measurement": "Fold reduced binding to Bcl-xL vs Mcl-1", "setting": "[23]; FP Ki ratio", "value": "more than 50 fold"}, {"measurement": "Ki", "setting": "[23]; read-out: Ki ± SD, Bcl-xL, competitive FP assay, Bid BH3 peptide", "value": "33 ± 4.33", "unit": "µM"}, {"measurement": "Potency for binding to Mcl-1 relative to 1 (UMI-59)", "setting": "[24]; FP Ki ratio", "value": "three times higher potency"}, {"measurement": "Ki", "setting": "[24]; read-out: Ki ± SD, Mcl-1, competitive FP assay, Bid BH3 peptide", "value": "490 ± 60", "unit": "nM"}, {"measurement": "Apoptotic cells in MEF DKO cells", "setting": "[25]", "value": 16, "unit": "%"}, {"measurement": "Fold decreased binding to Bcl-xL vs Mcl-1 (SPR)", "setting": "[26]", "value": "more than 30 fold"}, {"measurement": "Induction of early apoptosis", "setting": "[27]", "value": 8, "unit": "%"}, {"measurement": "Early apoptotic cells", "setting": "[28]; Panc-1, 5 μM, 24 hours", "value": 15, "unit": "%"}, {"measurement": "Early apoptotic cells", "setting": "[28]; Panc-1, 5 μM, 48 hours", "value": 21, "unit": "%"}, {"measurement": "Early apoptotic cells", "setting": "[28]; Panc-1, 10 μM, 24 hours", "value": 21, "unit": "%"}, {"measurement": "Early apoptotic cells", "setting": "[28]; Panc-1, 10 μM, 48 hours", "value": 49, "unit": "%"}, {"measurement": "Positive apoptotic cells of tumor sections (TUNEL) vs control group", "setting": "[29]", "value": "significantly increased"}, {"measurement": "Survivin in tumor tissue lysates (western blot)", "setting": "[29]", "value": "significant decrease of survivin"}, {"measurement": "Tumor growth inhibition in comparison with controls", "setting": "[29]; day 19 (p < 0.0001)", "value": 65, "unit": "%"}, {"measurement": "Tumor growth inhibition in comparison with controls", "setting": "[29]; day 22 (p < 0.003)", "value": 56, "unit": "%"}]}, {"smiles": "O=C(O)CSc1cc(NS(=O)(=O)c2cccs2)c2ccccc2c1O", "note": "[UMI-59]", "values": [{"measurement": "Ki", "setting": "[3]", "value": "37.5 ± 7.96", "unit": "µM"}, {"measurement": "Disruption of BL-Noxa / cellular Mcl-1 interaction", "setting": "[4]", "value": "effectively disrupt the interactions between BL-Noxa and cellular Mcl-1 in a dose dependent manner"}, {"measurement": "Ki", "setting": "[10]", "value": "6.14 ± 1", "unit": "µM"}]}]}
